Experimental data taken from ChEMBL document CHEMBL5113521, “Discovery of a Novel Oral Proteasome Inhibitor to Block NLRP3 Inflammasome Activation with Anti-inflammation Activity” (J Med Chem, 2022).
Calls of active or inactive are those of the source. No cut-off for these calls is given here.

How the values were obtained:
Mus musculus [1] = assay: Anti-colitis activity against DSS-induced ulcerative colitis C57BL/6J mouse model assessed as suppression of DSS induced weight loss at 0.125 to 0.5 mg/kg, po administered every 72 hrs for 10 days; format: functional, organism-based; details: dose 0.125-0.5 mg/kg, time 10.0 day
[2] = molecular target: NACHT, LRR and PYD domains-containing protein 3 (Mus musculus) (UniProt Q8R4B8); assay: Inhibition of NLRP3 inflammasome activation in LPS-stimulated mouse J774.A1 cells assessed as increase in c-Cbl expression at 7.5 to 60 nM preincubated for 1 hr followed by nigericin stimulation measured after 1 hr by immunoblot analysis; format: cell-based; details: dose 7.5-60 nM, time 2.0 hrs
NACHT, LRR and PYD domains-containing protein 3 (Mus musculus), sequence (Q8R4B8 whole entry, the tested form may be a part): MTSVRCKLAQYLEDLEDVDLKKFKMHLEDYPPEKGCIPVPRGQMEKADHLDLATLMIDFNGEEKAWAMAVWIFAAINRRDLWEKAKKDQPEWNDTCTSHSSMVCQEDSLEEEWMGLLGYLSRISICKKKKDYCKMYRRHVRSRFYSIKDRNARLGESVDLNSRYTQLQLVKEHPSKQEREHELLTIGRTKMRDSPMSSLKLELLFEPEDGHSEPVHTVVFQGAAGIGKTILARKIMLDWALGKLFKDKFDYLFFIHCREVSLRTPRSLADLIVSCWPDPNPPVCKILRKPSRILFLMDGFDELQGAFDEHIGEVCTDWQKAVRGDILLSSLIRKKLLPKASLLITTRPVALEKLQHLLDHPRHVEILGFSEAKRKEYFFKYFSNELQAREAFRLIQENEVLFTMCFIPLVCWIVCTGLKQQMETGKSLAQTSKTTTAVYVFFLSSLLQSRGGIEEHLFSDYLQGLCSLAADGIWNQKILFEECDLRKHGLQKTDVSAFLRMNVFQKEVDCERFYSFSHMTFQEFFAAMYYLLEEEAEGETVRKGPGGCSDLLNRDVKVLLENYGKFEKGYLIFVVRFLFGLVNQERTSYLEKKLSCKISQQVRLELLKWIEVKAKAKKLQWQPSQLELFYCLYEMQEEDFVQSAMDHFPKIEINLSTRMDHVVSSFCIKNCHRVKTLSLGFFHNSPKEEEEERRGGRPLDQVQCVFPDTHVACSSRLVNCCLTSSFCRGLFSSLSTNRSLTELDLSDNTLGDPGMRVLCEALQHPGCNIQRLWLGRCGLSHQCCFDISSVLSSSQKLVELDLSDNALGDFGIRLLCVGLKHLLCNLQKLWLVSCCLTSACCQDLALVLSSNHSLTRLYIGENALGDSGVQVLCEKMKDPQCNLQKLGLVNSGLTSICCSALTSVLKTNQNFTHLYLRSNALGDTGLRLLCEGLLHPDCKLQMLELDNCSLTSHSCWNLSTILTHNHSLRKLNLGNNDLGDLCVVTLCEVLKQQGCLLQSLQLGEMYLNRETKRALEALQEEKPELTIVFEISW

[3] = Cmax in Sprague-Dawley rat at 1 mg/kg, po measured upto 24 hrs by liquid chromatography tandem mass spectrometry; format: ADME, organism-based; parameters: dose 1 mg/kg, time < 24 hrs, route po; details: in vivo
[4] = molecular target: NACHT, LRR and PYD domains-containing protein 3 (Mus musculus) (UniProt Q8R4B8); assay: Inhibition of NLRP3 inflammasome activation in LPS-primed mouse BMDM cells assessed as reduction in IL-1 beta release preincubated for 1 hr followed by nigericin stimulation and measured after 1 hr by ELISA; format: cell-based; details: dose 7.5-60 nM, time 2.0 hrs, DDE = dose-dependent effect
J774.A1 [5] = assay: Inhibition of NF-kappaB in LPS treated mouse J774.A1 cells assessed as reduction in NLRP3 level at 60 nM incubated for 1 hr followed by LPS stimulation measured after 5 hrs by Western blot analysis; format: cell-based; details: time 6.0 hrs
Mus musculus [6] = assay: Protection against DSS-induced C57BL/6 mouse ulcerative colitis model assessed as reduction in NLRP3 level in colon at 0.125 to 0.5 mg/kg, po by Western blot analysis; format: functional, organism-based; details: dose 0.125-0.5 mg/kg
[7] = molecular target: NACHT, LRR and PYD domains-containing protein 3 (Mus musculus) (UniProt Q8R4B8); assay: Inhibition of NLRP3 inflammasome activation in LPS/nigericin stimulated mouse BMDM cells assessed as […] in ASC speck formation at 15 to 60 nM preincubated for 1 hr followed by LPS/nigericin stimulation by DAPI staining based immunofluorescence assay; format: cell-based; details: dose 15-60 nM
[8] = AUC (0 to infinity) in Sprague-Dawley rat at 0.5 mg/kg, iv measured upto 24 hrs by liquid chromatography tandem mass spectrometry; format: ADME, organism-based; parameters: time < 24 hrs, dose 0.5 mg/kg, route iv; details: in vivo
[9] = Clearance in Sprague-Dawley rat at 0.5 mg/kg, iv measured upto 24 hrs by liquid chromatography tandem mass spectrometry; format: ADME, organism-based; details: in vivo
[10] = Tmax in Sprague-Dawley rat at 1 mg/kg, po measured upto 24 hrs by liquid chromatography tandem mass spectrometry; format: ADME, organism-based; details: in vivo
[11] = molecular target: NACHT, LRR and PYD domains-containing protein 3 (Mus musculus) (UniProt Q8R4B8); assay: Inhibition of NLRP3 inflammasome activation in LPS-primed mouse J774.A1 cells assessed as inhibition of IL-1 beta release in supernatant preincubated for 1 hr followed by nigericin stimulation measured after 1 hr by Western blot analysis; format: cell-based; details: dose 7.5-60 nM, time 2.0 hrs, DDE = dose-dependent effect
[12] = molecular target: NACHT, LRR and PYD domains-containing protein 3 (Mus musculus) (UniProt Q8R4B8); assay: Inhibition of NLRP3 inflammasome activation in LPS-primed mouse J774.A1 cells assessed as inhibition of release of IL-1 beta preincubated for 1 hr followed by nigericin stimulation and measured after 1 hr by ELISA; format: cell-based; details: dose 7.5-60 nM, time 2.0 hrs, DDE = dose-dependent effect
Mus musculus [13] = assay: Protection against DSS-induced C57BL/6 mouse ulcerative colitis model assessed as reduction in pro-IL-1 beta level in colon at 0.125 to 0.5 mg/kg, po by Western blot analysis; format: functional, organism-based; details: dose 0.125-0.5 mg/kg
J774.A1 [14] = assay: Inhibition of NF-kappaB in LPS treated mouse J774.A1 cells assessed as reduction in p65 level at 60 nM incubated for 1 hr followed by LPS stimulation measured after 5 hrs by Western blot analysis; format: cell-based; details: time 6.0 hrs
Mus musculus [15] = assay: Protection against DSS-induced acute colitis in C57BL/6 mouse model assessed as improvement in goblet cell depletion at 0.125 to 0.5 mg/kg, po administered for 10 days by Hematoxylin and eosin staining based analysis; format: functional, organism-based; details: dose 0.125-0.5 mg/kg, time 10.0 day
[16] = molecular target: NACHT, LRR and PYD domains-containing protein 3 (Mus musculus) (UniProt Q8R4B8); assay: Inhibition of NLRP3 inflammasome activation in LPS-stimulated mouse J774.A1 cells assessed as increase in polyubiquitinated NLRP3 preincubated for 1 hr followed by nigericin stimulation measured after 1 hr by immunoblot analysis; format: cell-based; details: dose 7.5-60 nM, time 2.0 hrs, DDE = dose-dependent effect
J774.A1 [17] = assay: Inhibition of NF-kappaB in LPS treated mouse J774.A1 cells assessed as reduction in TNFalpha level at 7.5 to 60 nM incubated for 1 hr followed by LPS stimulation measured after 5 hrs by Western blot analysis; format: cell-based; details: dose 7.5-60 nM, time 6.0 hrs
[18] = MRT (0 to infinity) in Sprague-Dawley rat at 0.5 mg/kg, iv measured upto 24 hrs by liquid chromatography tandem mass spectrometry; format: ADME, organism-based; details: in vivo
[19] = AUC (0 to infinity) in Sprague-Dawley rat at 1 mg/kg, po measured upto 24 hrs by liquid chromatography tandem mass spectrometry; format: ADME, organism-based; parameters: dose 1 mg/kg, time < 24 hrs, route po; details: in vivo
[20] = molecular target: NACHT, LRR and PYD domains-containing protein 3 (Mus musculus) (UniProt Q8R4B8); assay: Inhibition of NLRP3 inflammasome activation in LPS-stimulated mouse J774.A1 cells assessed as increase in Cbl-b expression at 30 to 100 nM preincubated for 1 hr followed by nigericin stimulation measured after 1 hr by immunoblot analysis; format: cell-based; details: dose 30-100 nM, time 2.0 hrs
Mus musculus [21] = assay: Protection against DSS-induced acute colitis in C57BL/6 mouse model assessed as improvement in inflammatory cell infiltration at 0.125 to 0.5 mg/kg, po administered for 10 days by Hematoxylin and eosin staining based analysis; format: functional, organism-based; details: dose 0.125-0.5 mg/kg, time 10.0 day
[22] = Half life in Sprague-Dawley rat at 1 mg/kg, po measured upto 24 hrs by liquid chromatography tandem mass spectrometry; format: ADME, organism-based; details: in vivo
[23] = molecular target: NACHT, LRR and PYD domains-containing protein 3 (Mus musculus) (UniProt Q8R4B8); assay: Inhibition of NLRP3 inflammasome activation in LPS-stimulated mouse J774.A1 cells assessed as blockage of NLRP3-ASC protein-protein interaction at 15 to 60 nM preincubated for 1 hr followed by nigericin stimulation by co-immunoprecipitation assay; format: cell-based; details: dose 15-60 nM
Mus musculus [24] = assay: Protection against DSS-induced acute colitis in C57BL/6 mouse model assessed as improvement in loss of crypt architecture at 0.125 to 0.5 mg/kg, po administered for 10 days by Hematoxylin and eosin staining based analysis; format: functional, organism-based; details: dose 0.125-0.5 mg/kg, time 10.0 day
[25] = Cytotoxicity against HEK293 cells incubated for 24 hrs; format: toxicity, cell-based; details: human
[26] = molecular target: T1, Proteasome Macropain subunit MB1 (Homo sapiens, UniProt P28074); assay: Inhibition of 20S proteasome beta5 subunit (unknown origin) using Suc-LLVY-AMC as flurogenic substrate measured after 1 hr by fluorescence based analysis; details: read-out: IC50
T1 sequence (P28074 whole entry): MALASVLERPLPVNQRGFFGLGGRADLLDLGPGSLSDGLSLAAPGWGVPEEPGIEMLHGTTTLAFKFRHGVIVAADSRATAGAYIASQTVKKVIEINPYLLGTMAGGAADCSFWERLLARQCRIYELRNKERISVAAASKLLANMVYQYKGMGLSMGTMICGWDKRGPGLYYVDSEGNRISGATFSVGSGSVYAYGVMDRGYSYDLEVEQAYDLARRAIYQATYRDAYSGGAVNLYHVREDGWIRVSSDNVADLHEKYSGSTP

[27] = molecular target: NLR family CARD domain-containing protein 4 (Mus musculus) (UniProt Q3UP24); assay: Inhibition of NLRC4 inflammasome activation in LPS-primed mouse BMDM cells assessed as reduction in IL-1beta secretion at 7.5 to 60 nM preincubated for 1 hr followed by poly (dA/dT) stimulation by ELISA; format: cell-based; details: dose 7.5-60 nM
NLR family CARD domain-containing protein 4 (Mus musculus), sequence (Q3UP24 whole entry, the tested form may be a part): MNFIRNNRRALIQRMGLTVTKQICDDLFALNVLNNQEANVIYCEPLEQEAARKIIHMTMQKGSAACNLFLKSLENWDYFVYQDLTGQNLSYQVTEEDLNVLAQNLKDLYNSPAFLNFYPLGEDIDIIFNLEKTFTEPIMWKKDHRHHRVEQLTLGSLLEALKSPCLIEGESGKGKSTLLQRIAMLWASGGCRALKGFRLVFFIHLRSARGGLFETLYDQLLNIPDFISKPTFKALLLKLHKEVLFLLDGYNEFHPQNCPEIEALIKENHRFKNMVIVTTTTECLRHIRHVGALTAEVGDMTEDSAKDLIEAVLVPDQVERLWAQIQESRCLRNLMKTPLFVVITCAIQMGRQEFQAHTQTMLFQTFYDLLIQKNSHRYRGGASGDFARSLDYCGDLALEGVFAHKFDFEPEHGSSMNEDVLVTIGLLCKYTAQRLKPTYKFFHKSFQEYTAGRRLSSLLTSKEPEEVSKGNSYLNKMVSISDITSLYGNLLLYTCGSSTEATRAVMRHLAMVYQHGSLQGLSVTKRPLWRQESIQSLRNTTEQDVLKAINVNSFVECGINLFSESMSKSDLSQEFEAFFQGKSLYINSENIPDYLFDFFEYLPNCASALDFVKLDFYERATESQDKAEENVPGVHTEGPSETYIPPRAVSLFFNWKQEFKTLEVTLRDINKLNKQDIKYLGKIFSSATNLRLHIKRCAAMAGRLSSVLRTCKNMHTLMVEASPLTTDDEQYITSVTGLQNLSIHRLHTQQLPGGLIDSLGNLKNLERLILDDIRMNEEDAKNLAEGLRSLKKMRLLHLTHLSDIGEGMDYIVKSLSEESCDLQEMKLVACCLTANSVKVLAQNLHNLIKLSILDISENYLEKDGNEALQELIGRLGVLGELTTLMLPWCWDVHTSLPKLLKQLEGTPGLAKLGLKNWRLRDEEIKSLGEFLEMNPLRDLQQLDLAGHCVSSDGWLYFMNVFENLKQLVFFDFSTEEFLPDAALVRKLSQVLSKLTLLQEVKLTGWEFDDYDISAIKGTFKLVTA

J774.A1 [28] = assay: Inhibition of NF-kappaB in LPS treated mouse J774.A1 cells assessed as reduction in phosphorylated p65 level at 60 nM incubated for 1 hr followed by LPS stimulation measured after 5 hrs by Western blot analysis; format: cell-based; details: time 6.0 hrs

For `CC(C)C[C@H](NC(=O)[C@H](Cc1ccccc1)NC(=O)c1c(F)cccc1F)B(O)O`, the Activity (Mus musculus [1]) was “Active”, the Activity [2] was “Active” and the Cmax [3] was 208 ng/mL. For the same compound, the inhibition [4] was “Dde”, the inhibition (J774.A1 [5]) was “Active” and the Activity (Mus musculus [6]) was “Active”. For the same compound, the inhibition [7] was “Active”, the AUC [8] was 448.8 ng·h/mL and the clearance [9] was 18.8 mL/min/kg. For the same compound, the Tmax [10] was 0.25 h, the inhibition [11] was “Dde” and the inhibition [12] was “Dde”. For the same compound, the Activity (Mus musculus [13]) was “Active”, the inhibition (J774.A1 [14]) was “Active” and the Activity (Mus musculus [15]) was “Active”. The Activity [16] was “Dde”, the inhibition (J774.A1 [17]) was “Active” and the MRT inf [18] was 6.14 h. The AUC [19] was 489.2 ng·h/mL, the Activity [20] was “Active” and the Activity (Mus musculus [21]) was “Active”. For the same compound, the t1/2 [22] was 8.36 h, the inhibition [23] was “Active” and the Activity (Mus musculus [24]) was “Active”. The IC50 at 24 h [25] was under 79.4 nM, the IC50 [26] was 3.7 nM and the inhibition [27] was “Active”. For the same compound, the inhibition (J774.A1 [28]) was “Active”.
